Experimental data from patent publication US10400008B2, “Modulators of the SRC-kinase activity for preventing or treating metastatic cancer” (Cancer Research Technology Limited, priority 2013, dated 2019).
Values joined by “and” are separate entries in the source; they are usually repeats but may differ in a detail not shown here. Equal values may be shown once.

Columns and labels:
[1] = molecular target: T1, Src (Homo sapiens, UniProt P12931); assay: Src kinase assay in immune-complexes with enolase as substrate, EGF-stimulated HT1080 cells; format: cell-based; settings: EGF 100 ng/ml 10 min, peptide 1 nM
T1 construct: lysates were immune-precipitated with the anti-Src MAb and Src activity in immune-complexes was assayed using enolase as a substrate; endogenous in cells; host or cells: HT1080 human fibrosarcoma cells
Description: (§1) FIG. 3: Inhibition by S1 peptide of AR/Src complex, Src activation and DNA synthesis triggered by EGF in HT1080 cells. Quiescent HT1080 cells were used. The cells were left un-stimulated or stimulated for 10 min with EGF (at 100 ng/ml; Roche) in the absence or presence of S1 or Ss peptide (both at 1 nM). Casodex (at 10 μM) was used for comparison with the S1 peptide. The same concentrations of peptides and Casodex were used throughout the experiments. Upper section in A, the Western blot of HT1080 cell lysates with anti-EGFR antibody is shown. […] Lower section in A, lysates were immune-precipitated with anti EGFR Ab and proteins in immune-complexes were detected using antibodies against the indicated proteins. In B, lysates were immune-precipitated with the anti-Src MAb and Src activity in immune-complexes was assayed using enolase as a substrate. In C, cells on coverslips were left untreated or treated for 18 h with the indicated compounds. After in vivo pulse with BrdU (100 μM; Sigma), BrdU incorporation was analyzed by IF and expressed as % of total nuclei. Mean and SEM are shown. n represents the number of experiments.
(§2) Src tyrosine kinase was immune-precipitated, detected and assayed using enolase as a substrate (15). Src, EGF-R and tubulin were detected from cell lysates using appropriate antibodies (7). AR was immune-precipitated and detected as reported (3). […]

[2] = system: plugs of uterine tissue (endometriosis lesions); assay: Dose ranging prevention study: lesion burden, growth and establishment of transplanted uterine tissue plugs; format: in vivo, C57BL6 mice; settings: for Lesion establishment, single plug (P1-P4, M1, M2): 1 or 0 per plug, individual mouse; for Lesion establishment, single plug (P1-P4, M1, M2) / Lesion burden, Ave / Lesion growth, Ave / Lesion burden, Mean / Lesion establishment, Mean / Lesion growth, Mean / Lesion burden, single plug (P1-P6) / Lesion growth, single plug (P1-P4, M1, M2) / Lesion establishment, Ave: prevention; for Lesion burden, Ave / Lesion growth, Ave: average per mouse; for lesion burden / lesion growth: control 7.18; for Lesion burden, Mean / Lesion establishment, Mean / Lesion growth, Mean: group mean; for Lesion burden, single plug (P1-P6) / Lesion growth, single plug (P1-P4, M1, M2): individual mouse and plug; for Lesion establishment, Ave: per mouse
[3] = molecular target: AR association with Src-SH3 domain (Homo sapiens, UniProt P12931); settings: androgen-challenged LNCaP cells, reference 10; cited from earlier work
[4] = molecular target: T2, AR/Src complex (Homo sapiens, UniProt P12931); assay: EGFR/AR/Src association by immunoprecipitation in EGF-stimulated HT1080 cells; format: cell-based; settings: EGF 100 ng/ml 10 min, peptide 1 nM
T2 construct: endogenous in cells; host or cells: HT1080 human fibrosarcoma cells
Description: as §1, §2

[5] = system: HT1080 cells; assay: BrdU incorporation (DNA synthesis) in HT1080 cells; format: cell-based, human; settings: 18 h, EGF 100 ng/ml, peptide 1 nM
Description: Androgen challenging of these cells neither induces AR nuclear translocation, nor enhances DNA synthesis while robustly increases cell motility. In A, quiescent HT1080 cells were transfected with 3416 or 3424 ARE-luc constructs with or without hAR expressing plasmid. Details of these procedures have been described in Methods. Cells were left un-stimulated or stimulated for 18 h with 10 nM R1881. The luciferase activity was assayed, normalized using beta-gal as an internal control, and expressed as fold induction. Means and SEM are shown; n represents the number of experiments. […] In B, quiescent HT1080 cells on coverslips were left untreated or treated for 60 min with 10 nM R1881. Cells were analysed by IF for AR (left images) or Hoechst (right images). Images are representative of three independent experiments. […] In C, BrdU incorporation in cells on coverslips was analysed and expressed as in FIG. 2. In D, the number of migrated cells was evaluated and expressed as relative increase. […]
FIG. 3: Inhibition by S1 peptide of AR/Src complex, Src activation and DNA synthesis triggered by EGF in HT1080 cells. […] Lower section in A, lysates were immune-precipitated with anti EGFR Ab and proteins in immune-complexes were detected using antibodies against the indicated proteins. […] After in vivo pulse with BrdU (100 μM; Sigma), BrdU incorporation was analyzed by IF and expressed as % of total nuclei. […]

[6] = 1 ng/mouse s.c. daily, listed as ValiRx1
[7] = 10 ng/mouse s.c. daily, listed as ValiRx1
[8] = 100 ng/mouse s.c. daily, listed as ValiRx1
[9] = first of three dose groups (1 ng, 10 ng, 100 ng daily s.c.)
[10] = second of three dose groups (1 ng, 10 ng, 100 ng daily s.c.)
[11] = third of three dose groups (1 ng, 10 ng, 100 ng daily s.c.)

T1 sequence (P12931 whole entry): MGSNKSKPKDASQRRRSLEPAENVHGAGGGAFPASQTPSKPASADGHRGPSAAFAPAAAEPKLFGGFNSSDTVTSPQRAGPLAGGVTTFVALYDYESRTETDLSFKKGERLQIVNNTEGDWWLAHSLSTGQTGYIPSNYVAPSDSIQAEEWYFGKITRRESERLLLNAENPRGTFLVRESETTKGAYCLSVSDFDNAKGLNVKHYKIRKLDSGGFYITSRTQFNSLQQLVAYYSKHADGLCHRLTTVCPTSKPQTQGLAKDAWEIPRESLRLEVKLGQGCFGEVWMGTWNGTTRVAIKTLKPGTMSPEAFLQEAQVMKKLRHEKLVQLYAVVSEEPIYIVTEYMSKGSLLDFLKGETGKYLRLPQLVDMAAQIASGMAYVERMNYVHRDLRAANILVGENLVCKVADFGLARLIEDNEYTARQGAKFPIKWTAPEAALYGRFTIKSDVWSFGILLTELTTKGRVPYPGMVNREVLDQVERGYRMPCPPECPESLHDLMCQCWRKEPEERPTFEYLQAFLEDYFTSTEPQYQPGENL
T2 sequence (P12931 2-536 limits assumed, one chain of several): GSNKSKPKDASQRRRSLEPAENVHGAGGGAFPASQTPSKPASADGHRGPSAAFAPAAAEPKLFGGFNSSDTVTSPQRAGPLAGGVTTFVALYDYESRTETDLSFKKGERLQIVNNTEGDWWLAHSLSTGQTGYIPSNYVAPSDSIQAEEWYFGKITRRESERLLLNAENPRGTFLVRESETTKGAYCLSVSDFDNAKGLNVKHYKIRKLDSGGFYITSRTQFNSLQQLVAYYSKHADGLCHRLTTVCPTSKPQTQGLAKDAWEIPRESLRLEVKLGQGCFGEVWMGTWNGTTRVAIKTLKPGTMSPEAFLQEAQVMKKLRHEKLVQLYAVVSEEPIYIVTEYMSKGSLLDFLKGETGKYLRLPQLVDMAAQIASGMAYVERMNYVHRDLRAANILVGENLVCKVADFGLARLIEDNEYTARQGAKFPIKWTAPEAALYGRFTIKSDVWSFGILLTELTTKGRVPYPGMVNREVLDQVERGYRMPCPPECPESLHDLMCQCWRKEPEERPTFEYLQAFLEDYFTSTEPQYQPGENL
Sequence of AR association with Src-SH3 domain (P12931 2-536 limits assumed): as the sequence (P12931 2-536 limits assumed, one chain of several) above

Ac-PPPHPHARIK-NH2 [VAL001]
EGF stimulation of Src activity [1]: almost completely abolished | Lesion establishment, single plug (P1-P4, M1, M2) [2, 6]: 1 (29×) and 0 | Lesion establishment, single plug (P1-P4, M1, M2) [2, 7]: 1 (29×) and 0 | Lesion establishment, single plug (P1-P4, M1, M2) ([2]; 100 ng/mouse s.c. daily): 1 | Lesion burden, Ave [2, 6]: 6.5 mm^2 and 8.5 mm^2 and 1.1 mm^2 and 1.9 mm^2 and 12.1 mm^2 | Lesion growth, Ave [2, 6]: 6.5 mm^2 and 8.5 mm^2 and 1.3 mm^2 and 1.9 mm^2 and 12.1 mm^2 | Lesion burden, Ave [2, 7]: 2.9 mm^2 and 6.7 mm^2 and 11.3 mm^2 and 3.3 mm^2 and 3.5 mm^2 | Lesion growth, Ave [2, 7]: 2.9 mm^2 and 6.7 mm^2 and 11.3 mm^2 and 3.3 mm^2 and 4.2 mm^2 | Lesion burden, Ave [2, 8]: 11.8 mm^2 and 1.8 mm^2 and 3.2 mm^2 and 3.0 mm^2 and 2.9 mm^2 | Lesion growth, Ave [2, 8]: 11.8 mm^2 and 1.8 mm^2 and 3.2 mm^2 and 3.0 mm^2 and 2.9 mm^2 | lesion growth following treatment ([2]; daily 1 ng, 10 ng or 100 ng s.c., dosed group vs control): significantly reduced | lesion burden [2, 9]: 6.02 mm^2 | lesion growth [2, 9]: 6.23 mm^2 | Lesion burden, Mean ([2]; 1 ng/mouse s.c. daily): 6.02 mm^2 | Lesion establishment, Mean ([2]; 1 ng/mouse s.c. daily): 96.67% | Lesion growth, Mean ([2]; 1 ng/mouse s.c. daily): 6.23 mm^2 | Lesion burden, Mean ([2]; 10 ng/mouse s.c. daily): 5.53 mm^2 | Lesion establishment, Mean ([2]; 10 ng/mouse s.c. daily): 96.67% | Lesion growth, Mean ([2]; 10 ng/mouse s.c. daily): 5.72 mm^2 | Lesion burden, Mean ([2]; 100 ng/mouse s.c. daily): 4.52 mm^2 | Lesion establishment, Mean ([2]; 100 ng/mouse s.c. daily): 100.00% | Lesion growth, Mean ([2]; 100 ng/mouse s.c. daily): 4.52 mm^2 | Lesion burden, single plug (P1-P6) [2, 6]: 1.1 mm^2 (3×) and 3.1 mm^2 and 2.5 mm^2 and 4.2 mm^2 and 16.7 mm^2 and 15.2 mm^2 and 3.8 mm^2 (2×) and 0.2 mm^2 (3×) and 6.2 mm^2 and 0.5 mm^2 and 9.4 mm^2 and 0.0 mm^2 and 3.5 mm^2 (2×) and 17.0 mm^2 and 11.2 mm^2 and 8.0 mm^2 (2×) and 15.1 mm^2 and 5.7 mm^2 and 10.2 mm^2 and 10.6 mm^2 and 16.6 mm^2 and 1.8 mm^2 and 0.1 mm^2 | Lesion growth, single plug (P1-P4, M1, M2) [2, 6]: 1.131 mm^2 (3×) and 3.142 mm^2 and 2.545 mm^2 and 4.155 mm^2 and 16.74 mm^2 and 15.21 mm^2 and 3.801 mm^2 (2×) and 0.196 mm^2 (3×) and 6.158 mm^2 and 0.503 mm^2 and 9.425 mm^2 and 3.456 mm^2 and 3.464 mm^2 and 16.96 mm^2 and 11.2 mm^2 and 8.042 mm^2 (2×) and 15.1 mm^2 and 5.694 mm^2 and 10.18 mm^2 and 10.56 mm^2 and 16.62 mm^2 and 1.767 mm^2 and 0.126 mm^2 | Lesion burden, single plug (P1-P6) [2, 7]: 1.0 mm^2 (3×) and 3.5 mm^2 (5×) and 10.9 mm^2 and 7.3 mm^2 and 10.0 mm^2 and 4.5 mm^2 (2×) and 12.6 mm^2 and 7.0 mm^2 and 9.6 mm^2 and 3.1 mm^2 (2×) and 1.1 mm^2 and 2.5 mm^2 and 0.2 mm^2 and 6.7 mm^2 and 7.1 mm^2 and 5.4 mm^2 and 21.1 mm^2 and 12.1 mm^2 and 3.0 mm^2 and 0.0 mm^2 and 4.0 mm^2 and 9.7 mm^2 | Lesion growth, single plug (P1-P4, M1, M2) [2, 7]: 0.95 mm^2 (3×) and 3.464 mm^2 (5×) and 10.95 mm^2 and 7.288 mm^2 and 10.02 mm^2 and 4.524 mm^2 (2×) and 12.57 mm^2 and 7.037 mm^2 and 9.621 mm^2 and 3.142 mm^2 (2×) and 1.131 mm^2 and 2.545 mm^2 and 0.196 mm^2 and 6.739 mm^2 and 7.069 mm^2 and 5.372 mm^2 and 21.11 mm^2 and 12.06 mm^2 and 2.969 mm^2 and 3.958 mm^2 and 9.66 mm^2 | Lesion burden, single plug (P1-P6) [2, 8]: 7.0 mm^2 and 18.5 mm^2 and 11.0 mm^2 and 4.5 mm^2 and 2.8 mm^2 (3×) and 2.3 mm^2 (3×) and 2.0 mm^2 (2×) and 3.1 mm^2 and 3.5 mm^2 (3×) and 1.5 mm^2 and 4.9 mm^2 and 8.4 mm^2 and 12.6 mm^2 and 13.2 mm^2 and 0.2 mm^2 and 1.0 mm^2 and 0.3 mm^2 (2×) and 3.8 mm^2 (2×) and 7.5 mm^2 and 2.5 mm^2 and 1.8 mm^2 | Lesion growth, single plug (P1-P4, M1, M2) [2, 8]: 7.037 mm^2 and 18.47 mm^2 and 11 mm^2 and 4.453 mm^2 and 2.827 mm^2 (2×) and 2.27 mm^2 (3×) and 2.011 mm^2 (2×) and 3.142 mm^2 and 3.464 mm^2 (3×) and 1.539 mm^2 and 4.909 mm^2 and 8.357 mm^2 and 12.57 mm^2 and 13.2 mm^2 and 0.196 mm^2 and 0.95 mm^2 and 0.283 mm^2 (2×) and 3.801 mm^2 (2×) and 7.548 mm^2 and 2.545 mm^2 and 2.835 mm^2 and 1.767 mm^2 | Lesion establishment, Ave [2, 6]: 100% (4×) and 83.33% | Lesion establishment, Ave [2, 7]: 100% (4×) and 83.33% | Lesion establishment, Ave ([2]; 100 ng/mouse s.c. daily): 100% | lesion burden [2, 10]: 5.53 mm^2 | lesion growth [2, 10]: 5.72 mm^2 | lesion burden [2, 11]: 4.52 mm^2 | lesion growth [2, 11]: 4.52 mm^2 | AR association with Src-SH3 domain [3]: competes | EGF-induced AR/Src association and AR/Src association with EGF-R [4]: abolishes | EGF-triggered DNA synthesis (BrdU incorporation) [5]: inhibits
